Reference: US4153727A, “Pharmaceutical compositions of a prostaglandin compound for rectal use in treating asthma” (priority 1977, dated 1979)

Key:
histamine [1] = test: antiasthmatic effect, aerosol: protection against histamine-induced sneezing; type: in vivo; details: aerosol 15 sec; histamine aerosol 0.1%; guinea-pigs
Protocol: (§1) Guinea-pigs were placed in a chamber and sprayed for 10 sec. with an aerosol of histamine solution (0.1%) and onset of sneezing was recorded. Animals that sneezed within 70-100 sec. were selected as controls. These animals were sprayed for 15 sec. with an aerosol of the test compounds. After 45 sec., the animals were sprayed with histamine and observed for 3 min.

histamine [2] = test: antiasthmatic effect, oral: protection against histamine-induced sneezing; type: in vivo; details: Cavia porcellus, 0.5 h, 30 min before histamine spray, guinea-pigs
Protocol: as §1
Guinea-pigs were sprayed for 10 sec with histamine 30 min after oral administration of the test compounds and observed for 3 min. The percent of amimals protected was determined.

[3] = diarrhea-producing effect, oral; details: guinea pig, in vivo, guinea-pigs; for TD50: observed at 2-5 hrs and next morning, read-out: (A) Diarrhea-producing effect (b) ED50; for selectivity ratio: read-out: b/a (diarrhea-producing ED50 / oral antiasthmatic ED50)
Protocol: Ii. diarrhea-producing Effect
Test compounds were administered orally to guinea-pigs. The appearance of diarrhea (loose or watery feces) at every 2 hrs, 3 hrs, 4 hrs and 5 hrs period and next morning were noted.

histamine [4] = details: earlier patents; cited from earlier work
[5] = system: bronchoconstriction induced by intravenous injection of histamine; test: effect on air-way resistance (Konzett and Rossler), intraduodenal administration; type: in vivo, guinea-pig; details: Cavia porcellus, 0.5 h, 30 min before i.v. histamine 3 μg/kg, anesthetized guinea-pigs, read-out: (B) Effect on air-way resistance ED50
Protocol: Iii. effect on Air-way Resistance
The air-way resistance of the guinea-pig lung was determined by the method of Konzett and Rossler (Arch. exp. Path. Pharmak., 195, 71-74(1940)). The bronchodilator activity of prostaglandins were expressed in terms of protective effect against bronchoconstriction induced by intravenous injection of histamine (3 μg/kg). Histamine was injected 30 min after intraduodenal administration of test compound to urethane anesthetized and artificially ventilated guinea-pigs.

hystamine = test: Experiment 1: bronchodilator activity by hystamine spray method, rectal vs oral; type: in vivo, male guinea pigs; details: 30 min; for Bronchodilator activity, effective / animals tested: oral (control)
Protocol: A suppository prepared using the compound of formula I and the oily base or water-soluble base was applied by rectal administration (this invention) to male guinea pigs fasted for 24 hours, each weighing about 550 g. On the other hand, a solution of the compound of formula I in physiological saline solution was applied by oral administration to guinea pigs under the same condition as above for control. After 30 minutes from the administration, the bronchodilator activity of the medicament was determined by a hystamine spray method.

[6] = system: respiratory tract contraction induced by hystamine; test: 50% inhibition of respiratory tract contraction induced by hystamine, oral vs intravenous; type: in vivo; details: 50% inhibition of hystamine-induced respiratory tract contraction
[7] = rectal administration: absorption, antitussive effect, diarrhea; type: in vivo
[8] = stability as inhalant (aerosol); type: physicochemical; details: used as an inhalant (aerosol)
histamine [9] = details: earlier patents; cited from earlier work; remark: listed apart in the source

Row | Structure (SMILES) | Antiasthmatic effect, Aerosol ED50 (histamine [1]) [µg/mL] | ED50 (histamine [2]) [mg/kg] | TD50 [3] [mg/kg] | selectivity ratio [3] | antiasthmatic effect by oral administration (in words) (histamine [4]) | other results
1 | CCCC[C@@H](C)[C@H](O)/C=C/[C@H]1[C@H](O)CC(=O)[C@@H]1C/C=C\CCCC(=O)O [16(R)-methyl-PGE2, 11α,15(S)-dihydroxy-16(R)-methyl-9-oxo-5(cis)-13(trans)prostadienoic acid] | 0.011 | 0.0175 | 0.025 | 1.43 | – | –
2 | CCCC[C@H](C)[C@H](O)/C=C/[C@H]1[C@H](O)CC(=O)[C@@H]1C/C=C\CCCC(=O)O [16(S)-methyl-PGE2, 11α, 15(S)-dihydroxy-16(S)-methyl-9-oxo-5(cis)-13(trans)prostadienoic acid] | 0.009 | 0.025 | 0.1 | 4 | – | –
3 | COCCCCC[C@H](O)/C=C/[C@H]1[C@H](O)CC(=O)[C@@H]1C/C=C\CCCC(=O)O [20-methoxy-PGE2, 11α,15(S)-dihydroxy-20-methoxy-9-oxo-5(cis)-13(trans)Prostadienoic acid] | 0.15 | > 0.8 | – | – | does not show antiasthmatic effect | –
4 | CCCCC[C@H](O)/C=C/[C@H]1[C@H](O)CC(=O)[C@@H]1C/C=C\CCCC(=O)O [Prostaglandin E2] | 0.15 | > 0.8 | – | – | – | ED50 [5]: > 0.8 mg/kg
5 | COCCCC[C@H](C)[C@H](O)/C=C/[C@H]1[C@H](O)CC(=O)[C@@H]1C/C=C\CCCC(=O)O [compound of formula I, 11α,15(S)-dihydroxy-20-methoxy-16(S)-methyl-9-oxo-5(cis),13(trans)-prostadienoic acid] | – | 0.71 | 0.14 | 20 | excellent antiasthmatic effect | Bronchodilator activity, effective / animals tested (hystamine; 3.1 μg/kg): 1/6; Bronchodilator activity, effective / animals tested (hystamine; 6.3 μg/kg): 3/6; Bronchodilator activity, effective / animals tested (hystamine; 12.5 μg/kg): 4/6; Bronchodilator activity, effective / animals tested (hystamine; 25 μg/kg): 4/6; Bronchodilator activity, effective / animals tested (hystamine; 50 μg/kg): 5/6; Bronchodilator activity ED50 (hystamine; oral administration (control)): 0.007 mg/kg; effective amount (ED50) oral relative to intravenous injection [6]: about 2400 times; absorption through the intestine [7]: unexpectedly absorbed through the intestine; antitussive effect [7]: exhibits an antitussive effect; diarrhea [7]: does not cause diarrhea; stability of the medicament [8]: difficult to maintain the stability; antiasthmatic effect by aerosol administration (in words) (histamine [9]): excellent antiasthmatic effect
